The source of these data is patent publication US10722514B2 (FLX Bio, Inc., priority 2017, dated 2020).

In this assay the target is T1, recombinant full-length USP7 (Homo sapiens, UniProt Q93009).
T1 construct: A 25 μl reaction volume containing recombinant full-length USP7 (62 pM)
The assay is described as follows: USP7-mediated ubiquitin-rhodamine cleavage assay. In kind it is biochemical. To be noted: recombinant full-length USP7 62 pM; ubiquitin-rhodamine 100 nM; 30-minute incubation, 1 hour reaction at room temperature; read-out: Potency (USP7 IC50). In outline: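 Rhodamine fluorescence read-out after acetic acid stop; IC50 by 4-parameter nonlinear regression. Enzyme at 62 pM, substrate ubiquitin-rhodamine 100 nM final, 1 h at room temperature in the dark, after 30 min compound preincubation. Buffer: HEPES pH 7.3, NaCl, TCEP, BSA; 1% DMSO.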

pIC50: −log10 of the molar value.

T1 sequence (Q93009 whole entry): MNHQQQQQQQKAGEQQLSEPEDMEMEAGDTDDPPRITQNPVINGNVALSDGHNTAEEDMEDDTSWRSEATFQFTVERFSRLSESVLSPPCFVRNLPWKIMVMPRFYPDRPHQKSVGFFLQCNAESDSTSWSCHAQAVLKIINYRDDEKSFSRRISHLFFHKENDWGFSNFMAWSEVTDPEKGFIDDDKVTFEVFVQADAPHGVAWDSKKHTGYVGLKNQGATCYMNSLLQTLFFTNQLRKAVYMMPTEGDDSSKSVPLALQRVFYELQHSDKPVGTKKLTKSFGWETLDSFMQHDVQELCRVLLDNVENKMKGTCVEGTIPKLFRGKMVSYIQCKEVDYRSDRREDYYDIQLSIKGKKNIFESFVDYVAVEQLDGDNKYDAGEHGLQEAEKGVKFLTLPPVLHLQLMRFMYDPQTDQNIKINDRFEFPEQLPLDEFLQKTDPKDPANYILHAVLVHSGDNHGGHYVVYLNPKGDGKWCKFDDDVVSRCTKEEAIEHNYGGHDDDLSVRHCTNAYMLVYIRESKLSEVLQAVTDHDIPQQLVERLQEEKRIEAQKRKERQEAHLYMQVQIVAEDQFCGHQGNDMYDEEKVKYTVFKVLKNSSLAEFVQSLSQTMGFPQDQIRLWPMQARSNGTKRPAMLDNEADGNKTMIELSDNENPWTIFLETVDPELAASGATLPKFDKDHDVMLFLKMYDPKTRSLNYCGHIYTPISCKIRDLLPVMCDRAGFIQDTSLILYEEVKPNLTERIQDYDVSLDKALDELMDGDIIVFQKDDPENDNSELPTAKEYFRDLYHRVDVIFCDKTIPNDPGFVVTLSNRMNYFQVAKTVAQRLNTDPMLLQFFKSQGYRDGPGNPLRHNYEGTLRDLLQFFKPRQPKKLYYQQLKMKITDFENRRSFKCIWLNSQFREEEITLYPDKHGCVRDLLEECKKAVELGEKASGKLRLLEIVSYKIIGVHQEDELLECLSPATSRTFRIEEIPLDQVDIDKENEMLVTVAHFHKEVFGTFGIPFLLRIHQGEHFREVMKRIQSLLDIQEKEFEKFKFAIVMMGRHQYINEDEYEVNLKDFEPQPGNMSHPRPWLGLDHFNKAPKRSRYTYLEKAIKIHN

As for `Cc1cc(Cl)cc(-c2ccnc3cc(Cn4c(=O)ccn(CC(F)(F)F)c4=O)sc23)c1OC1CC2(COCCN2)C1` (centres unmarked) [Example 698, 3-[[7-[5-chloro-3-methyl-2-(8-oxa-5-azaspiro[3.5]nonan-2-yloxy)phenyl]thieno[3,2-b]pyridin-2-yl]methyl]-1-(2,2,2-trifluoroethyl)pyrimidine-2,4-dione], the pIC50 is above 6.00.
As to `COCC1(N)CC(Oc2c(C)cc(Cl)cc2-c2ccnc3cc(Cn4c(=O)ccn(CC(F)(F)F)c4=O)sc23)C1` (centres unmarked) [Example 699, 3-[[7-[2-[3-amino-3-(methoxymethyl)cyclobutoxy]-5-chloro-3-methyl-phenyl]thieno[3,2-b]pyridin-2-yl]methyl]-1-(2,2,2-trifluoroethyl)pyrimidine-2,4-dione], the pIC50 was above 6.00.
For the compound `Cc1cc(Cl)cc(-c2ccnc3cc(Cn4c(=O)ccn(CC(F)(F)F)c4=O)sc23)c1OC1CC(N2CC(O)C2)C1` (centres unmarked) [Example 700, 3-[[7-[5-chloro-2-[3-(3-hydroxyazetidin-1-yl)cyclobutoxy]-3-methyl-phenyl]thieno[3,2-b]pyridin-2-yl]methyl]-1-(2,2,2-trifluoroethyl)pyrimidine-2,4-dione; 2,2,2-trifluoroacetic acid], the pIC50 is above 6.00.
In the case of `Cc1cc(Cl)cc(-c2ccnc3cc(Cn4c(=O)ccn(CC(F)(F)F)c4=O)sc23)c1OCCN1CCC1` [Example 701, 3-[[7-[2-[2-(azetidin-1-yl)ethoxy]-5-chloro-3-methyl-phenyl]thieno[3,2-b]pyridin-2-yl]methyl]-1-(2,2,2-trifluoroethyl)pyrimidine-2,4-dione; 2,2,2-trifluoroacetic acid], the pIC50 is above 6.00.
For `Cc1cc(Cl)cc(-c2ccnc3cc(Cn4c(=O)ccn(CC(F)(F)F)c4=O)sc23)c1OC(C)C` [Example 702, 3-[[7-(5-chloro-2-isopropoxy-3-methyl-phenyl)thieno[3,2-b]pyridin-2-yl]methyl]-1-(2,2,2-trifluoroethyl)pyrimidine-2,4-dione] the value was 5.00 to 6.00.
